{"source": "patent US20210369662A1", "about": "“FAT ACCUMULATION INHIBITOR AND BLOOD LIPID LEVEL IMPROVING AGENT” (ASAHI GROUP HOLDINGS, LTD., priority 2018, published 2021)", "key": {"[1]": {"system": "C57BL/6N male mice on high-fat diet", "assay": "Fat accumulation in high-fat diet mice (CT scan and adipose tissue weight)", "assay_type": "in vivo", "details": "15 weeks", "procedure": "(§1) The animal experiment was approved by the Animal Experiment Committee of Asahi Group Holdings, Ltd. (Mar. 9, 2017), and was conducted in accordance with the guidelines for the management and use of laboratory animals of the company's R&D center (implementation period: Apr. 3, 2017 to Jan. 10, 2018). Four-week-old C57BL/6N male mice (Japan SLC, Inc.) were purchased and used for the experiment. The mice were raised in the following environment: room temperature: 23±1.5° C., humidity: 55±15%, lighting time: 8:00 to 20:00.\n(§2) High-fat diet containing 45 kcal % fat (Research Diets, Inc., D12451) was used to prepare feed with or without 0.1% 10-HOA. The four-week-old mice were acclimated to the high-fat diet for 2 weeks, then divided into two groups: (1) high-fat diet control group and (2) 0.1% 10-HOA-containing high-fat diet group, with 10 mice per group, and were administered the diet for 15 weeks. Feed and drinking water (tap water) were given freely by individual housing.\n(§3) After fasting for 16 hours from the day before dissection, the amount of abdominal visceral fat, subcutaneous fat, and total fat (sum of the amount of visceral fat and subcutaneous fat) were measured by a CT scanner (Latheta LCT-100; Hitachi Aloka Medical, Ltd.), under anesthesia by isoflurane inhalation. Then, the abdomen was opened under anesthesia, and blood was collected from the abdominal vena cava. Visceral fat (perirenal fat, and retroperitoneal fat) and jejunal epithelial tissue were collected to measure the weight of adipose tissue. The above test was repeated three times, and an analysis was performed by a two-way analysis of variance (factor 1: test group, factor 2: number of animal experiments) (n=10×3/group)."}, "[2]": {"system": "cholesterol transporter (NPC1L1)", "assay": "Gene expression level of cholesterol transporter in jejunal epithelial tissue (real-time PCR)", "assay_type": "in vivo, mice", "details": "0.1% 10-HOA in high-fat diet, 15 weeks, mRNA relative to control group, internal standard 36b4 (FIG. 8)", "procedure": "as §1\nHigh-fat diet containing 45 kcal % fat (Research Diets, Inc., D12451) was used to prepare feed with or without 0.1% 10-HOA. […]\nAfter fasting for 16 hours from the day before dissection, the amount of abdominal visceral fat, subcutaneous fat, and total fat (sum of the amount of visceral fat and subcutaneous fat) were measured by a CT scanner (Latheta LCT-100; Hitachi Aloka Medical, Ltd.), under anesthesia by isoflurane inhalation. […]\nThe triglyceride concentration in the plasma was measured using a Triglyceride E test. The amount of cholesterol in the plasma was measured using a conventional method (G. Toshima et al., LipoSEARCH (registered trademark); Analytical GP-HPLC method for lipoprotein profiling and its applications, J. Biol. Macromol., 13 (2), 21-32 (2013)) at Skylight Biotech Inc,. […] The mRNA expression level was expressed as a relative value to the control group."}, "[3]": {"system": "C57BL/6N male mice on high-fat diet", "assay": "Plasma lipids and apolipoprotein A-I in high-fat diet mice", "assay_type": "in vivo", "details": "0.1% 10-HOA in high-fat diet, 15 weeks", "procedure": "as §1, §2, §3\nThe triglyceride concentration in the plasma was measured using a Triglyceride E test. The amount of cholesterol in the plasma was measured using a conventional method (G. Toshima et al., LipoSEARCH (registered trademark); Analytical GP-HPLC method for lipoprotein profiling and its applications, J. Biol. Macromol., 13 (2), 21-32 (2013)) at Skylight Biotech Inc,. Mouse Apolipoprotein A-I ELISAPRO kit (MABTECH) was used for the measurement of apolipoprotein A-I in the plasma. The jejunal epithelial tissue was collected by QIAzol Lysis Reagent (QIAGEN), and total RNA was extracted according to the product protocol of RNeasy Mini Kit (QIAGEN). Total RNA was reverse transcribed by M-MLV Reverse Transcriptase (Life Technologies Japan Ltd.) to prepare cDNA. To measure the mRNA expression level, real-time PCR by the intercalator method was performed using Light Cycler System (Roche Diagnostics K.K.). […] The mRNA expression level was expressed as a relative value to the control group."}, "[4]": {"details": "0.1% 10-HOA in high-fat diet (45 kcal % fat), adipose tissue weight, n=10x3/group"}}, "data": [{"smiles": "CCCCCCCCC(O)CCCCCCCCC(=O)O", "note": "(stereo not shown) [10-HOA, 10-hydroxyoctadecanoic acid]", "values": [{"measurement": "Fat on the posterior abdominal wall", "setting": "[1]; [4]", "result": "0.6805 ± 0.0206", "unit": "g"}, {"measurement": "Perirenal fat", "setting": "[1]; [4]", "result": "0.4924 ± 0.0130", "unit": "g"}, {"measurement": "weights of perirenal fat and retroperitoneal fat", "setting": "[1]; 0.1% 10-HOA in high-fat diet, compared to control (Table 1)", "result": "reduced"}, {"measurement": "amount of abdominal visceral fat", "setting": "[1]; CT scanner, 0.1% 10-HOA in high-fat diet, compared to control group (FIG. 1)", "result": "significantly reduced"}, {"measurement": "total amount of fat", "setting": "[1]; CT scanner, sum of visceral and subcutaneous fat, 0.1% 10-HOA in high-fat diet, compared to control (FIG. 3)", "result": "decreasing tendency"}, {"measurement": "gene expression level of the cholesterol transporter (NPC1L1) in jejunal epithelial tissue", "setting": "[2]", "result": "decrease"}, {"measurement": "triglyceride concentration in plasma", "setting": "[3]; 16 h fasting, compared to control (FIG. 4)", "result": "decreasing tendency"}, {"measurement": "Apolipoprotein A-I in plasma", "setting": "[3]; ELISA, compared to control (FIG. 6)", "result": "increasing tendency"}, {"measurement": "small HDL cholesterol in plasma", "setting": "[3]; compared to control (FIG. 5)", "result": "significantly increased"}, {"measurement": "chylomicron cholesterol in plasma", "setting": "[3]; compared to control (FIG. 7)", "result": "significant decrease"}]}]}
